Laboratory results from patent US11242344B2, “(4-hydroxypyrrolidin-2-yl)-heterocyclic compounds and methods of use thereof” (Genentech, Inc., priority 2017, dated 2022).

Target: NanoLuc VHL fusion protein (Homo sapiens (Human), UniProt P40337)
Experiment: VHL HEK-293 BRET Assay (NanoBRET Target Engagement)
Format: cell-based
Details: geometric mean where more than one measurement
Procedure, shortened: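 HEK293 cells stably expressing NanoLuc-VHL, 2 h with compound titration and 1 uM final tracer, then Nano-Glo substrate plus extracellular NanoLuc inhibitor. BRET ratio 610/460 nm, background-corrected with no-tracer wells, normalised to DMSO and 10 uM unlabeled VHL antagonist controls; IC50 by four-parameter fit.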

Chain of NanoLuc VHL fusion protein (P40337 whole entry, looked up, the tested form may be a part): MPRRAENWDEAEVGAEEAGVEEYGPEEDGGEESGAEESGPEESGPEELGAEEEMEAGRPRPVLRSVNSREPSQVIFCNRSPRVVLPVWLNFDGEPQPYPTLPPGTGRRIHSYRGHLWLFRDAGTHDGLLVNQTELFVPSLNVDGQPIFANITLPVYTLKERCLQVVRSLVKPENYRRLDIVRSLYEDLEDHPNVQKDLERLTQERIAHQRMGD
Chain of NanoLuc VHL fusion protein (Q15370 whole entry partner, looked up, the tested form may be a part): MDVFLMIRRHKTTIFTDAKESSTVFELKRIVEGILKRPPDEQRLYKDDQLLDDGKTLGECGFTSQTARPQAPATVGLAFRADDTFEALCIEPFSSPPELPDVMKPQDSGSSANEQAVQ
Chain of NanoLuc VHL fusion protein (Q15369 whole entry partner, looked up, the tested form may be a part): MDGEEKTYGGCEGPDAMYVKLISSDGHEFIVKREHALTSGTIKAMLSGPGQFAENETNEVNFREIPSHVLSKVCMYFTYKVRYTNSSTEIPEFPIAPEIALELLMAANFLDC

Question: How did the IC50 turn out when `Cc1ncsc1-c1ccc([C@]2(C)NC(C3C[C@@H](O)CN3C(=O)[C@@H](NC(=O)CCCCCCCCCCNC(=O)c3cc4c(cc3CS(C)(=O)=O)-c3cn(C)c(=O)c5[nH]cc(c35)CN4c3ncc(F)cc3F)C(C)(C)C)=NC2=O)cc1` (single isomer, unassigned) [Example 1005.1] was run?
Answer: The IC50 was 64.6 µM.
